Among the data in PubChem BioAssay (NCI) are GI50 and TGI values, retold here.

Broadly, the GI50 is the concentration giving 50% growth inhibition. In general, TGI refers to the concentration giving total growth inhibition. A low value points to greater sensitivity of the cells.

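Five compound concentrations were applied to cells in 96-well plates for 48 hours; endpoints were derived by simple linear interpolation of the resulting dose-response curve. Here, GI50 denotes the concentration required for 50% inhibition of growth. TGI is the concentration that stops growth completely.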 Where only a bound is given, the exact number is not on record here.

Test systems include T-47D breast; MOLT-4 leukemia; U251 CNS; HS 578T breast; MDA-MB-231 breast; OVCAR-5 ovarian; HCT-116 colon; TK-10 renal; OVCAR-8 ovarian; NCI-H522 lung.
Common to all, as to assay: DTP human tumour cell line panel, 48 h

For `COc1cc(-c2ncn(/C=C\c3nnco3)n2)cc(C(F)(F)F)c1`, the GI50 is 571 nM in the assay with T-47D breast; 41.1 nM in the assay on MOLT-4 leukemia; 66.1 nM in the assay on U251 CNS; 488 nM with HS 578T breast; 208 nM with MDA-MB-231 breast; 1780 nM in the assay with OVCAR-5 ovarian. Further, the GI50 was 153 nM in the assay on HCT-116 colon, 726 nM in the assay with TK-10 renal, 0.0813 µM in the assay on OVCAR-8 ovarian and 0.0671 µM in the assay with NCI-H522 lung. In addition, the TGI in the assay on T-47D breast is greater than 59.9 µM; in the assay with U251 CNS, 17.6 µM; in the assay with HS 578T breast, greater than 100 µM; with MDA-MB-231 breast it was greater than 71.2 µM; with OVCAR-5 ovarian, greater than 100 µM; with HCT-116 colon, 13.5 µM. The results for the TGI with TK-10 renal, in the assay with OVCAR-8 ovarian and in the assay with NCI-H522 lung were 23 µM, greater than 47 µM and 1.61 µM, respectively.
Turning to `COc1ccc(/C=N\Nc2nc(SCC(C)C)nc(-c3ccc(OC)cc3)c2C#N)cc1`, the GI50 in the assay with T-47D breast was 1360 nM; with MOLT-4 leukemia it was 12900 nM; in the assay on U251 CNS, 988 nM; with HS 578T breast, 3980 nM; with MDA-MB-231 breast it was 6660 nM; in the assay with OVCAR-5 ovarian, 20400 nM. Moreover, the GI50 in the assay with HCT-116 colon was 679 nM; with TK-10 renal, 2020 nM; in the assay on OVCAR-8 ovarian, 5.3 µM; with NCI-H522 lung it was 11.3 µM. Further, the TGI in the assay with T-47D breast was 10.7 µM; with MOLT-4 leukemia, greater than 100 µM; in the assay on U251 CNS, 14.9 µM; in the assay with HS 578T breast, 30.9 µM; with MDA-MB-231 breast, 25 µM; in the assay on OVCAR-5 ovarian it was greater than 100 µM. For the same molecule, the TGI with HCT-116 colon turned out to be 15.3 µM; in the assay with TK-10 renal, 8.62 µM; with OVCAR-8 ovarian, 29.8 µM; in the assay on NCI-H522 lung it was 63.2 µM.
As to `COC1=C(OC)[C@]2(OC)c3c(O)c(OC)c4c(c3O[C@@]23O[C@@H](c2ccccc2)CC=C3C1=O)[C@@H](OC)C[C@H](c1ccccc1)O4`, the GI50 in the assay with T-47D breast is 564 nM; in the assay with MOLT-4 leukemia, 40.1 nM; in the assay with U251 CNS it was 1410 nM; with HS 578T breast, 896 nM; with MDA-MB-231 breast it was 445 nM; in the assay on OVCAR-5 ovarian, 1500 nM. For the same molecule, the GI50 is 226 nM in the assay on HCT-116 colon, 821 nM in the assay with TK-10 renal, 0.451 µM with OVCAR-8 ovarian and 0.247 µM in the assay on NCI-H522 lung. The TGI with T-47D breast worked out at 1.71 µM; with MOLT-4 leukemia it was 0.194 µM; in the assay on U251 CNS, 2.74 µM; in the assay with HS 578T breast, 3.66 µM; with MDA-MB-231 breast it was 1.7 µM; in the assay on OVCAR-5 ovarian it was 2.93 µM. The TGI stood at 0.517 µM in the assay on HCT-116 colon, 1.93 µM with TK-10 renal, 2.62 µM in the assay with OVCAR-8 ovarian and 0.762 µM in the assay with NCI-H522 lung.
`O=C1C(Sc2ccc3ccccc3c2)=C(Sc2ccc3ccccc3c2)C(=O)c2ccccc21`: the TGI with T-47D breast was found to be 4.62 µM; with MOLT-4 leukemia, 5.9 µM; in the assay on U251 CNS, 19.1 µM; in the assay with HS 578T breast, 62.3 µM; in the assay with MDA-MB-231 breast it was 18.3 µM; with OVCAR-5 ovarian, 27.1 µM. Moreover, the TGI with HCT-116 colon is 20.2 µM; in the assay with OVCAR-8 ovarian, 22.2 µM; with NCI-H522 lung, 10.6 µM.
In the case of `COc1ccc(OC)c(Cc2cnc3nc(N)nc(N)c3c2C)c1`, the TGI was 47.2 µM with T-47D breast; 23.5 µM in the assay with MOLT-4 leukemia; greater than 44.1 µM with U251 CNS; 49.7 µM with HS 578T breast; 33.8 µM in the assay with MDA-MB-231 breast; 48.1 µM in the assay with OVCAR-5 ovarian. Also, the TGI in the assay with HCT-116 colon is 30.4 µM; with TK-10 renal, greater than 84.7 µM; in the assay on OVCAR-8 ovarian, 27.8 µM; in the assay with NCI-H522 lung, 21.8 µM.
Take `CN1CCCC1c1cccnc1.O=C(O)c1ccccc1O.O=C([O-])c1ccccc1[OH2+].O=C([O-])c1ccccc1[OH2+].[Mn+2]` (configuration not stated): the GI50 was greater than 100000 nM in the assay on T-47D breast; 64900 nM with MOLT-4 leukemia; greater than 100000 nM in the assay with U251 CNS; greater than 100000 nM in the assay with HS 578T breast; greater than 100000 nM in the assay with MDA-MB-231 breast; 73100 nM with OVCAR-5 ovarian. Besides, the GI50 with HCT-116 colon was greater than 100000 nM; in the assay on TK-10 renal, greater than 100000 nM; with OVCAR-8 ovarian, greater than 100 µM; with NCI-H522 lung it was 16.7 µM. Also, the TGI with T-47D breast, with MOLT-4 leukemia, in the assay on U251 CNS, in the assay with HS 578T breast, in the assay on MDA-MB-231 breast and in the assay with OVCAR-5 ovarian was greater than 100 µM throughout. The TGI is greater than 100 µM with HCT-116 colon, greater than 100 µM in the assay with TK-10 renal, greater than 100 µM in the assay on OVCAR-8 ovarian and 36.4 µM in the assay on NCI-H522 lung.
Take `C=CC[N+]1(CC)CCN=C1CCCCCCCCCCCCCCCCC` (configuration not stated): the GI50 in the assay with T-47D breast was 315 nM; in the assay with MOLT-4 leukemia it was 1070 nM; in the assay with U251 CNS it was 386 nM; with HS 578T breast it was 432 nM; in the assay with MDA-MB-231 breast, 763 nM; in the assay on OVCAR-5 ovarian it was 472 nM. Besides, the figures for the GI50 in the assay on HCT-116 colon and with TK-10 renal were 294 nM and 1100 nM, respectively. The TGI worked out at 1.62 µM in the assay on T-47D breast; 3.51 µM with MOLT-4 leukemia; 1.47 µM in the assay on U251 CNS; 1.57 µM in the assay with HS 578T breast; 2.19 µM in the assay with MDA-MB-231 breast; 1.64 µM in the assay with OVCAR-5 ovarian. For the same molecule, the TGI came to 1.15 µM in the assay on HCT-116 colon and 2.44 µM in the assay with TK-10 renal.
As for `c1ccc2c(CNCCN3CCNCC3)c3ccccc3c(CNCCN3CCNCC3)c2c1`, the GI50 in the assay on T-47D breast is 19900 nM; in the assay on MOLT-4 leukemia, 3880 nM; with U251 CNS, 14800 nM; with MDA-MB-231 breast, 16000 nM; in the assay on OVCAR-5 ovarian, 3990 nM; with HCT-116 colon, 13300 nM. Moreover, the GI50 in the assay on TK-10 renal is 19700 nM; with OVCAR-8 ovarian, 36.9 µM; with NCI-H522 lung it was 13 µM. Besides, the TGI was found to be 81.9 µM with T-47D breast; 27.5 µM with MOLT-4 leukemia; 40.3 µM in the assay with U251 CNS; 38.6 µM in the assay with MDA-MB-231 breast; 17.4 µM in the assay with OVCAR-5 ovarian; 29.5 µM with HCT-116 colon. The TGI is 79.8 µM in the assay with TK-10 renal, greater than 100 µM in the assay on OVCAR-8 ovarian and 35.9 µM in the assay with NCI-H522 lung.
